From patent US10822376B2, “Biologically active peptides” (Baxalta Incorporated, priority 2008, dated 2020)
Values after ≈ are worked out from the molar mass of the structure shown. Like-named read-outs stand apart in the source and are kept apart here. Where a SMILES comes first, the peptide text is derived from it. Where no end group is shown, it is not given here. [ ]: non-standard residue; d: D form.

Tests used:
[1] = tested on: human FVIII inhibited plasma; assay: Defined Intrinsic Thrombin Generation Assay (DITGA, triggered by FXIa and phospholipids); assay type: biochemical; conditions: for Activity in the Defined Intrinsic Thrombin Generation Assay: summary
[2] = tested on: Factor VIII deficient human plasma; assay: DDPTGA (reagent B) in FVIII depleted plasma; assay type: biochemical; conditions: compounds at 50 μM and 80, 90 or 100 μM; further: key: '+' means stimulates; '−' means does not stimulate
Text: Preferably, Reagent C high is used.

[3] = physchem; conditions: for solubility kinetic: pH 7.4
Description: Aqueous solubility is measured in PBS at pH 7.4 either in an assay provided by Cerep (France, Catalog ref. 900-11a) or according to the following protocol. The aim of this procedure is to determine the solubility of a drug candidate (analyte) in a buffer, by estimating the saturation concentration of the candidate in the buffer using HPLC. A known concentration of the candidate in an organic solvent is used as a standard. A stock solution of the test compound in DMSO must be prepared as the initial step. […] DMSO stock-solutions are diluted to a final concentration of 50 μM with DMSO (100% reference-solution) and buffer (test-solution) to provide a minimum volume of 500 μL of each. Both solutions are shaken at 25° C. at 950 rpm in an Eppendorf “thermomixer comfort” for at least 60 min. The suspension is centrifuged at 22 330 g for at least two min and 100 μL of the supernatant is transferred into polypropylene-inserts placed in glass vials and closed by snap-ring caps. Alternatively the solutions can be prepared in microtiter plates with half of the previously described starting solvent volume. For the determination of the solubility all samples are analyzed by HPLC in triplicate. Injection volume is at least 10 μL. The obtained data are analyzed by “Chemstation-software” (Agilent, Waldbronn, Germany). The peaks from the analyses of the organic solutions are integrated and the arithmetic mean is reported as “AUC 1” (reference area of known amount injected at the HPLC). […] The ratio of the mean “AUC 2” and “AUC 1” is calculated and thus the percentage of the dissolved amount of compound in buffer is obtained and solubility can be reported in μM.

[4] = Acute toxicology in mice; assay type: in vivo, mouse; conditions: C57BL/6, mouse, in vivo, 60 minutes following administration, read-out: Max dose within toxicity category: No detected toxicity
Description: Toxicology studies involved monitoring of attitude changes due to toxic effects immediately after application and twice daily; monitoring of body weight; histopathology of brain, heart, kidney, liver, lung. Experiments were performed in C57131/6 mice.
C57BI/6 mice weighing 18-20 g were administered with compounds in a suitable vehicle i.v. in the tail vein or i.p. or s.c at 10 ml/kg. Quantities of the compounds administered were in the range of 0.075 to 125 mg/kg (i.v.), 15-125 mg/kg (i.p.) and 125 mg/kg (s.c.). There were four mice per group. Attitude changes due to toxic effects were monitored immediately after administration of the compound and for 60 minutes thereafter. Body weight was monitored for five days after administration. At day 5 after administration, mice were culled and autopsy performed. Brain, heart, kidney, liver, lung and spleen were biopsied.
In the above table, the maximum dose tested giving rise to no detected toxicity, some toxicity or severe toxicity over the period of 60 minutes following administration is reported. “No detected toxicity” indicates no acute toxic observations.

[5] = tested on: FVIII deficient plasma; assay: Defined Dual-Pathway Thrombin Generation Assay (DDPTGA, reagent C high), FVIII deficient plasma; assay type: biochemical, human; conditions: for Peak IIa FVIII EU / Peak Time FVIII EU: FVIII deficient plasma
[6] = tested on: Factor VII/VIIa deficient human plasma; assay: DDPTGA (reagent B) in FVII depleted plasma; conditions: compounds at 50 μM and 80, 90 or 100 μM
Description: (§1) The Defined Dual-Pathway Thrombin Generation Assay is performed as described below, using a commercial test kit (Technothrombin TGA, Technoclone GmbH, Vienna, Austria). […] USA) are incubated four minutes at 37° C. Preferably, Reagent C high is used. Thrombin generation is started by the addition of 40 μl of one of several types of human plasma (37° C.). […] By deviating the original fluorescence data the amount of generated thrombin is calculated from a standard curve constructed using a concentration range of thrombin.
(§2) The in vitro thrombin generation assay based on the cleavage of Z-GGR-AMC to release the fluorophore AMC, described in the specific description, i.e. the Defined Dual-Pathway Thrombin Generation Assay was used to characterise the effect of the compounds in several depleted human plasmas. […] 10 μl peptide dilution, 40 μl TGA substrate and 40 μl plasma were used as described in the specific description.
(§3) The plasmas used in the experiments were fresh frozen and were deficient in Factor V, Factor VII/VIIa, Factor VIII, Factor X or Factor XI (George King Bio-Medical, Inc.). Residual coagulation factor levels of deficient plasmas were specified as less than 1%.
(§4) For each depleted plasma used in the experiments, compounds were tested at two concentrations, namely 50 μM and 80, 90 or 100 μM. A negative control was used, in which no test compound was included.

[7] = tested on: Factor XI deficient human plasma; assay: DDPTGA (reagent B) in FXI depleted plasma; conditions: compounds at 50 μM and 80, 90 or 100 μM
Description: as §1, §2, §3, §4

[8] = biological target: HERG channel (Homo sapiens, UniProt Q12809); assay type: cell-based
Description: It was tested at 10 μM and the data were compared with historical values determined at Cerep.

[9] = tested on: Factor X deficient human plasma; assay: DDPTGA (reagent B) in FX depleted plasma; conditions: compounds at 50 μM and 80, 90 or 100 μM
Description: as §1, §2, §3, §4

[10] = tested on: FVIII inhibited plasma; assay: Defined Dual-Pathway Thrombin Generation Assay (DDPTGA, reagent C high), FVIII inhibited plasma; assay type: biochemical, human; conditions: for Peak IIa FEIBA EU / Peak IIa FVIIa EU / Peak Time FEIBA EU / Peak Time FVIIa EU: FVIII inhibited plasma; for Activity in the Defined Dual-Pathway Thrombin Generation Assay: summary, FVIII inhibited or deficient plasma
[11] = tested on: Factor V deficient human plasma; assay: DDPTGA (reagent B) in FV depleted plasma; conditions: compounds at 50 μM and 80, 90 or 100 μM
Description: as §1, §2, §3, §4

Sequence of HERG channel (Q12809 whole entry): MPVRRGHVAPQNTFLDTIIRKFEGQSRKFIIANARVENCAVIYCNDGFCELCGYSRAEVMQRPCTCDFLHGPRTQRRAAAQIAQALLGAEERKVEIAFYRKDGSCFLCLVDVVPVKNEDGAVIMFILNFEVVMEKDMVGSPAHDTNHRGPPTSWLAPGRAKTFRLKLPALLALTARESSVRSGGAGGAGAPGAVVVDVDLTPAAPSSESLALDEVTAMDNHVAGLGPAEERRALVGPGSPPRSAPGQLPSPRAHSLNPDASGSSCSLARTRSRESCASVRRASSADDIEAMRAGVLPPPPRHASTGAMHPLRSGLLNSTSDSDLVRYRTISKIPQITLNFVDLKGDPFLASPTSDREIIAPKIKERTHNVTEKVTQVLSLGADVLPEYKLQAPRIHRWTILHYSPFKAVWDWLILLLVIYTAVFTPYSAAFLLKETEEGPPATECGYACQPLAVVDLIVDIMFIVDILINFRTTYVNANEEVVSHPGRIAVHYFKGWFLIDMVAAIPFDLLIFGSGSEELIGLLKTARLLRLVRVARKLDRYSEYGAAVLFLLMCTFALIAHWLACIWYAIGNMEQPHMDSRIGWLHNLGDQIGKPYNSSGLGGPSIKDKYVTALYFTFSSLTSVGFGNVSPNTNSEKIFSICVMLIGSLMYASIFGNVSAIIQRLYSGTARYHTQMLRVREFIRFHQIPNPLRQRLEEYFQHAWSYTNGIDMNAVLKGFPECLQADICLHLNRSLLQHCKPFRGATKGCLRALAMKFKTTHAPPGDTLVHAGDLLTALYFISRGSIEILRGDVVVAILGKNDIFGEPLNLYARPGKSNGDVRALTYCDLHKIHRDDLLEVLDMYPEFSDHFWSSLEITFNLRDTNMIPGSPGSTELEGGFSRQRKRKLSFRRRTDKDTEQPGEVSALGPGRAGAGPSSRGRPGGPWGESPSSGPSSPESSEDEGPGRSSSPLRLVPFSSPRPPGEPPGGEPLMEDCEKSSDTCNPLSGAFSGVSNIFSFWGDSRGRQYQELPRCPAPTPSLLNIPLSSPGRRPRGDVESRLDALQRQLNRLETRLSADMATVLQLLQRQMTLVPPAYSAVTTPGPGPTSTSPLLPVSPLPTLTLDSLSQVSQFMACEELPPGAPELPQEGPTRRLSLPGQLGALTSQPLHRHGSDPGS

Compound	Thrombin peak time given as FEIBA equivalent activity ([1]; peptide 6.25 μM)	Thrombin peak time given as FEIBA equivalent activity ([1]; peptide 12.5 μM)	Thrombin peak time given as FEIBA equivalent activity ([1]; peptide 25 μM)	Thrombin peak time given as FEIBA equivalent activity ([1]; peptide 50 μM)	Thrombin peak time given as FEIBA equivalent activity ([1]; peptide 100 μM)	Activity in the Defined Intrinsic Thrombin Generation Assay [1]	Stimulation of thrombin generation [2]	solubility kinetic [3]	solubility ([3]; pH 7.4, Aqueous solubility)	NOAEL at 1 h ([4]; ip)	NOAEL at 1 h ([4]; iv)	Stimulation of thrombin generation [6]	Stimulation of thrombin generation [7]	Stimulation of thrombin generation [9]	Stimulation of thrombin generation [11]	Peak IIa FVIII EU ([5]; peptide 50 μM)	Peak Time FVIII EU ([5]; peptide 50 μM)	Peak IIa FEIBA EU ([10]; peptide 50 μM)	Peak IIa FVIIa EU ([10]; peptide 50 μM)	Peak Time FEIBA EU ([10]; peptide 50 μM)	other results
CC[C@@H](C)[C@@H](NC(=O)[C@@H](CS)NC(C)=O)C(=O)N[C@H](CCSC)C(=O)N[C@H](Cc1ccccc1)C(=O)N[C@H](Cc1c[nH]c2ccccc12)C(=O)N[C@H](Cc1ccc(O)cc1)C(=O)N[C@H](CC(=O)O)C(=O)N[C@H](CCC(=O)O)C(=O)N[C@H](Cc1ccc(O)cc1)C(=O)N[C@H](CCC(=O)O)C(N)=O [Peptide B03, Ac-cimfwydeye-NH2] (Ac-[dC][dI][dM][dF][dW][dY][dD][dE][dY][dE]-NH2)	454 mU/ml	602 mU/ml	738 mU/ml	1030 mU/ml	1394 mU/ml	possess activity	+	114 µM (≈ 164 µg/mL)	114 µM (≈ 164 µg/mL)	15 mg/kg	1.5 mg/kg	+	+	+	−						Effect on both peak time and peak IIa of thrombin generation ([5]; DDPTGA, comment on Table 10): positively affected; Peak IIa FVIII EU ([5]; peptide 40 μM): 4.8 mU/ml; Peak Time FVIII EU ([5]; peptide 40 μM): 8.7 mU/ml; Peak IIa FVIII EU ([5]; peptide 100 μM): 5.3 mU/ml; Peak Time FVIII EU ([5]; peptide 100 μM): 7.5 mU/ml; HERG inhibition Rb+ efflux (% Inhibition at 10 μM) [8]: −2.1%; Peak IIa FEIBA EU ([10]; peptide 40 μM): 7.2 mU/ml; Peak IIa FVIIa EU ([10]; peptide 40 μM): 0.2 nM; Peak Time FEIBA EU ([10]; peptide 40 μM): BLS (BLS = below lowest standard.); Peak Time FVIIa EU ([10]; peptide 40 μM): BLS (BLS = below lowest standard.); Peak IIa FEIBA EU ([10]; peptide 100 μM): 12.3 mU/ml; Peak IIa FVIIa EU ([10]; peptide 100 μM): 0.6 nM; Peak Time FEIBA EU ([10]; peptide 100 μM): BLS (BLS = below lowest standard.); Peak Time FVIIa EU ([10]; peptide 100 μM): BLS (BLS = below lowest standard.); Activity in the Defined Dual-Pathway Thrombin Generation Assay [10]: possess activity
Ac-PMKFDVWDLYFEIVW-NH2 [Peptide A02]	577 mU/ml	674 mU/ml	780 mU/ml	1018 mU/ml	1305 mU/ml	possess activity	+	35 µM	35 µM	25 mg/kg	25 mg/kg	+	+	+	−	BLS (BLS = below lowest standard.)	BLS (BLS = below lowest standard.)	BLS (BLS = below lowest standard.)	BLS (BLS = below lowest standard.)	10.2 mU/ml	solubility ([3]; pH 7.4, Solubility in PBS pH 7.4): ≥ 25 µM; HERG inhibition Rb+ efflux (% Inhibition at 10 μM) [8]: −3.3%; Peak Time FVIIa EU ([10]; peptide 50 μM): 0.4 nM; Activity in the Defined Dual-Pathway Thrombin Generation Assay [10]: possess activity
Ac-RMKFDVWDLYFEIVW-NH2 [Peptide A01]	97 mU/ml	138 mU/ml	160 mU/ml	227 mU/ml	338 mU/ml	possess activity	+	9 µM	9 µM	20 mg/kg	20 mg/kg	+	+	−	−	BLS (BLS = below lowest standard.)	BLS (BLS = below lowest standard.)	BLS (BLS = below lowest standard.)	BLS (BLS = below lowest standard.)	BLS (BLS = below lowest standard.)	Peak IIa FVIII EU ([5]; peptide 90 μM): BLS (BLS = below lowest standard.); Peak Time FVIII EU ([5]; peptide 90 μM): BLS (BLS = below lowest standard.); Peak Time FVIIa EU ([10]; peptide 50 μM): BLS (BLS = below lowest standard.); Peak IIa FEIBA EU ([10]; peptide 90 μM): BLS (BLS = below lowest standard.); Peak IIa FVIIa EU ([10]; peptide 90 μM): BLS (BLS = below lowest standard.); Peak Time FEIBA EU ([10]; peptide 90 μM): BLS (BLS = below lowest standard.); Peak Time FVIIa EU ([10]; peptide 90 μM): BLS (BLS = below lowest standard.)
Ac-WDLYFEIVW-NH2 [Peptide A05]	390 mU/ml	487 mU/ml	562 mU/ml	631 mU/ml	816 mU/ml	possess activity	+	6 µM	6 µM	15 mg/kg		+	+	+	−	BLS (BLS = below lowest standard.)	BLS (BLS = below lowest standard.)	BLS (BLS = below lowest standard.)	BLS (BLS = below lowest standard.)	BLS (BLS = below lowest standard.)	Peak IIa FVIII EU ([5]; peptide 100 μM): BLS (BLS = below lowest standard.); Peak Time FVIII EU ([5]; peptide 100 μM): BLS (BLS = below lowest standard.); Peak Time FVIIa EU ([10]; peptide 50 μM): BLS (BLS = below lowest standard.); Peak IIa FEIBA EU ([10]; peptide 100 μM): BLS (BLS = below lowest standard.); Peak IIa FVIIa EU ([10]; peptide 100 μM): BLS (BLS = below lowest standard.); Peak Time FEIBA EU ([10]; peptide 100 μM): BLS (BLS = below lowest standard.); Peak Time FVIIa EU ([10]; peptide 100 μM): BLS (BLS = below lowest standard.)
Ac-WDLYFEIVWE [Peptide A06]	571 mU/ml	750 mU/ml	843 mU/ml	919 mU/ml	879 mU/ml	possess activity	+		164 µM	25 mg/kg	1 mg/kg	+	+	+	+	BLS (BLS = below lowest standard.)	BLS (BLS = below lowest standard.)	BLS (BLS = below lowest standard.)	BLS (BLS = below lowest standard.)	BLS (BLS = below lowest standard.)	solubility ([3]; pH 7.4, Solubility in PBS): 164 µM; Peak IIa FVIII EU ([5]; peptide 100 μM): BLS (BLS = below lowest standard.); Peak Time FVIII EU ([5]; peptide 100 μM): BLS (BLS = below lowest standard.); HERG inhibition Rb+ efflux (% Inhibition at 10 μM) [8]: −6.4%; Peak Time FVIIa EU ([10]; peptide 50 μM): BLS (BLS = below lowest standard.); Peak IIa FEIBA EU ([10]; peptide 100 μM): BLS (BLS = below lowest standard.); Peak IIa FVIIa EU ([10]; peptide 100 μM): BLS (BLS = below lowest standard.); Peak Time FEIBA EU ([10]; peptide 100 μM): BLS (BLS = below lowest standard.); Peak Time FVIIa EU ([10]; peptide 100 μM): 0.4 nM; Activity in the Defined Dual-Pathway Thrombin Generation Assay [10]: possess activity
